The values that follow come from PMC5884628 (International journal of biological macromolecules, 2016).

The test system of data set [1] is E. coli. The conditions noted are these: ref [18], [19]; cited from earlier work.
Data set [2] has as its system E. coli ATP synthase. The conditions noted are these: ref [18], [19]; cited from earlier work.
Data set [3] deals with Staphylococcus aureus. The conditions noted are these: ref [26], [27], cited from earlier work.
In data set [4] the test system is null E. coli strain (pUC118/DK8). The data set can be described thus: Growth of null E. coli in the presence of venom peptides. Format: cell-based, Escherichia coli. The conditions noted are these: null strain in comparison to wild-type.
Data set [5] deals with Escherichia coli. The conditions noted are these: ref [26], [27]; cited from earlier work.
The subject of data set [6] is wild-type membrane bound F1Fo ATP synthase. The data set can be described thus: Inhibition of membrane bound F1Fo ATPase activity by venom peptides. The conditions noted are these: 60 min preincubation at RT, pH 8.0; Fig. 2. Format: biochemical, Escherichia coli.
Data set [7] has as its system Pseudomonas aeruginosa. The conditions noted are these: ref [26], [27], cited from earlier work.
In data set [8] the test system is wild-type E. coli strain (pBWU13.4/DK8). The data set can be described thus: Growth of wild-type E. coli in the presence of venom peptides. Format: cell-based, Escherichia coli. The conditions noted are these: wild-type in comparison to null strain.
Data set [9] deals with burns and acute infections. The conditions noted are these: ref [26], [27]; cited from earlier work.
Data set [10] concerns melanoma cell. The conditions noted are these: ref [31]; cited from earlier work.
Data set [11] relates to human pathogenic bacteria; multi-drug resistant bacterial strains. The conditions noted are these: broad spectrum of microbes; ref [26], [27]; cited from earlier work.
For data set [12], the system named is erythrocytes. The conditions noted are these: ref [26], [27]; cited from earlier work.
Data set [13] has as its system P. aeruginosa. The conditions noted are these: rat models; ref [26], [27]; cited from earlier work.
For data set [14] the following is noted: ref [26], [27]; cited from earlier work.

With melittin, the E. coli growth result in [1] was “abrogation of E. coli growth”. In addition, in data set [2], the “inhibition of E. coli ATP synthase” value is “potently inhibit”.
In the case of KFFRKLKKSVKKRAKEFFKKPRVIGVSIPF [BF-30], in data set [3] (drug-resistant), the “effectiveness against drug-resistant Staphylococcus aureus” value was “effective”. Further, the “time to kill S. aureus” value in [3] was “less than 120 minutes”. The “inhibition of null E. coli (in words)” value in data set [4] is given as “partial inhibition”. For the same substance, the “effectiveness against drug-resistant Escherichia coli” value in [5] is “effective”. Besides, in data set [6], the “inhibition of ATP synthase (in words)” value is “strong inhibition of ATP synthase”. In addition, the “effectiveness against drug-resistant Pseudomonas aeruginosa” value in [7] (drug-resistant) is on record as “effective”. In data set [7], the “time to kill P. aeruginosa” value is on record as “less than 120 minutes”. Besides, in [8], the “inhibition of wild-type E. coli (in words)” value was “potent inhibition”. For the same substance, the “effectiveness in burns and acute infections” value in data set [9] is recorded as “effective”. Also, in data set [10], the melanoma cell proliferation result is listed as “selectively inhibit melanoma cell proliferation”. The “antimicrobial activity in comparison to gentamicin, ampicillin, or bacitracin” value in data set [11] was “stronger antimicrobial activity”. Also, the hemolytic activity result in data set [12] is “no obvious hemolytic”. In addition, in data set [13], the “P. aeruginosa colony formation” value is given as “significantly reduced”; the “subsequent infection and inflammation” value was “prevented”. The cytotoxic activity result in data set [14] is on record as “no obvious hemolytic or cytotoxic activity”.
